Measured values taken from ChEMBL document CHEMBL5370650, “Discovery of Clinical Candidate NT-0796, a Brain-Penetrant and Highly Potent NLRP3 Inflammasome Inhibitor for Neuroinflammatory Disorders” (J Med Chem, 2023).
In brackets after ≈: the same amount, converted by molar mass. Activity calls are given as the source filed them. The rule behind the calls is not given here.

Experiments:
[1] = Permeability of compound at pH 7.4 incubated for 4 hrs by […] based PAMPA assay; format: ADME; conditions: read-out: permeability
[2] = Inhibition of LPS-induced IL-6 secretion in human PBMC cells incubated for 4 hrs by ELISA
[3] = Inhibition of LPS-induced TNFalpha secretion in human PBMC cells incubated for 4 hrs by ELISA
[4] = Kinetic solubility of compound in PBS at pH7.4 at 1 to 200 uM incubated for 24 hrs by LC-UV analysis; format: physicochemical; conditions: pH 7.4, dose 1-200 µM, read-out: Kinetic_solubility
Cytochrome P450 1A2 = target: T1, Cytochrome P450 1A2 (Homo sapiens, UniProt P05177); experiment: Reversible inhibition of CYP1A2 in human liver microsomes in presence of NADPH by LC-MS/MS analysis; format: ADME, Microsome
T1 sequence (P05177 whole entry): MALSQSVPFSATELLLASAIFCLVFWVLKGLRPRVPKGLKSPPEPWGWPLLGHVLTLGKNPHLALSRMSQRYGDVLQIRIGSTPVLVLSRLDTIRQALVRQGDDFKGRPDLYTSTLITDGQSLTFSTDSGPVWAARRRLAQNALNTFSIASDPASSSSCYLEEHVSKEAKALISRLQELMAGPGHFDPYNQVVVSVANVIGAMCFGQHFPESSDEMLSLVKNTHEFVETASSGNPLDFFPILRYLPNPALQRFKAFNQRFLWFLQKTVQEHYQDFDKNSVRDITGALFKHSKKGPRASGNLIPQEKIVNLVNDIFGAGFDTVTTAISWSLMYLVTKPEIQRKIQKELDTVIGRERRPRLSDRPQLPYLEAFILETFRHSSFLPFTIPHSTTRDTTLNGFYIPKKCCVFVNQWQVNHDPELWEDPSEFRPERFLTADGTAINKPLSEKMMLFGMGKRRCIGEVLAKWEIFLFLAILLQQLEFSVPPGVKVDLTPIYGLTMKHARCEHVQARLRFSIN

[5] = target: T2, NACHT, LRR and PYD domains-containing protein 3 (Homo sapiens, UniProt Q96P20); experiment: Inhibition of NLRP3 inflammasome activation in human whole blood assessed as inhibition of LPS/ATP induced IL-1beta secretion preincubated with LPS for 3 hrs followed by compound addition for 30 mins and further stimulated with ATP for 60 mins by ELISA; format: tissue-based
T2 sequence (Q96P20 whole entry, the tested form may be a part): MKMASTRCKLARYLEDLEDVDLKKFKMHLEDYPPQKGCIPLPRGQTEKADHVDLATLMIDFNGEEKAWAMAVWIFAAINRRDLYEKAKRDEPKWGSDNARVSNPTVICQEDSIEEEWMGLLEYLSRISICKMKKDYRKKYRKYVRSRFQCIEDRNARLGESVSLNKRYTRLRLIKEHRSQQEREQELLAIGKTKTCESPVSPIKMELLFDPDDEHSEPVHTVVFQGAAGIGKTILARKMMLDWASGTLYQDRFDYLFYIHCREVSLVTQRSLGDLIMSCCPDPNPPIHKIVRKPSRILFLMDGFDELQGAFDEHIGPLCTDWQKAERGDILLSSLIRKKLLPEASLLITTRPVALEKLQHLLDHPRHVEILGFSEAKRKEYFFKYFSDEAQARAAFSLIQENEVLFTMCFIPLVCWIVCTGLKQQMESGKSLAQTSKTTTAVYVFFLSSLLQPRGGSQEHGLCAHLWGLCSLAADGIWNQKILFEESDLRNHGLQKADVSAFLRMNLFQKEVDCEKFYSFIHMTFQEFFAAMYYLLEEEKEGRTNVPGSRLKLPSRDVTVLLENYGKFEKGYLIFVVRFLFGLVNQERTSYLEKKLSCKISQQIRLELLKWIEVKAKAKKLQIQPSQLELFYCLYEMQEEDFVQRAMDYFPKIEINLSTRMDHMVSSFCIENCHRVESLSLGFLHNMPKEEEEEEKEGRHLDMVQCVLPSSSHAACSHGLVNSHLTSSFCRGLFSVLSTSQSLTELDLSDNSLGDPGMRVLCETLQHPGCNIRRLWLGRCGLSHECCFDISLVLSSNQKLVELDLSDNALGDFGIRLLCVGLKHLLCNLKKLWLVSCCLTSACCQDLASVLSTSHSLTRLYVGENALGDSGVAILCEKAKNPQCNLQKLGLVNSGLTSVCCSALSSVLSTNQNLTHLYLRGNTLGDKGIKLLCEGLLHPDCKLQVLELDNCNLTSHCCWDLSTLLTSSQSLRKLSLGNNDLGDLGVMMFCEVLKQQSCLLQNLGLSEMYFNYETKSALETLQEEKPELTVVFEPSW

[6] = target: T2, NACHT, LRR and PYD domains-containing protein 3; experiment: Inhibition of NLRP3 inflammasome activation in LPS-activated human PBMC cells assessed as inhibition of ATP/nigericin induced IL-1beta secretion preincubated with LPS for 3 hrs followed by compound addition for 30 mins and further stimulated with ATP for 1 hr by ELISA; format: cell-based
Cytochrome P450 2C19 = Cytochrome P450 2C19 (Homo sapiens, UniProt P33261); experiment: Reversible inhibition of CYP2C19 in human liver microsomes using S-mephenytoin as substrate incubated for 20 mins in presence of NADPH by LC-MS/MS analysis; format: ADME, Microsome
Sequence of Cytochrome P450 2C19 (P33261 whole entry): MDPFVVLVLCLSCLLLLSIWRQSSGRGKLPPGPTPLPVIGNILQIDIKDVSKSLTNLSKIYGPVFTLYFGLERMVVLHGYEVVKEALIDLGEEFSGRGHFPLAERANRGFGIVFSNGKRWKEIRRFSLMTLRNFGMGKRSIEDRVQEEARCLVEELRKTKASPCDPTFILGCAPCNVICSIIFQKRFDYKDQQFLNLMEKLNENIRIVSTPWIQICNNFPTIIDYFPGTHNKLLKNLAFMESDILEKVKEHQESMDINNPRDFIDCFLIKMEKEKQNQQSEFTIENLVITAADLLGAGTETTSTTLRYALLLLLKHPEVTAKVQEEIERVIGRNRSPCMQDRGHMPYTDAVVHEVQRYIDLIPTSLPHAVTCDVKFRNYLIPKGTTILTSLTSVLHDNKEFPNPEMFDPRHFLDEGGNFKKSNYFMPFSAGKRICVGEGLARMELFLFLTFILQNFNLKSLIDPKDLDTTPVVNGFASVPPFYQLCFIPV

NLRC4 (Homo sapiens) = experiment: Inhibition of NLRC4 inflammasome activation in human PBMC assessed as reduction in IL-1beta secretion at 3 nM preincubated with LPS for 2.5 hrs followed by compound addition for 30 mins by ELISA
[7] = Mutagenicity in Salmonella typhimurium by Ames test; format: toxicity; conditions: salmonella enterica subsp. enterica serovar typhimurium
HepG2 = experiment: Induction of phospholipidosis in human HepG2 cells assessed as increase in phospholipids within lysosome by high content screening analysis; format: toxicity, cell-based
Cytochrome P450 2B6 = target: T3, Cytochrome P450 2B6 (Homo sapiens, UniProt P20813); experiment: Reversible inhibition of CYP2B6 in human liver microsomes in presence of NADPH by LC-MS/MS analysis; format: ADME, Microsome
T3 sequence (P20813 whole entry): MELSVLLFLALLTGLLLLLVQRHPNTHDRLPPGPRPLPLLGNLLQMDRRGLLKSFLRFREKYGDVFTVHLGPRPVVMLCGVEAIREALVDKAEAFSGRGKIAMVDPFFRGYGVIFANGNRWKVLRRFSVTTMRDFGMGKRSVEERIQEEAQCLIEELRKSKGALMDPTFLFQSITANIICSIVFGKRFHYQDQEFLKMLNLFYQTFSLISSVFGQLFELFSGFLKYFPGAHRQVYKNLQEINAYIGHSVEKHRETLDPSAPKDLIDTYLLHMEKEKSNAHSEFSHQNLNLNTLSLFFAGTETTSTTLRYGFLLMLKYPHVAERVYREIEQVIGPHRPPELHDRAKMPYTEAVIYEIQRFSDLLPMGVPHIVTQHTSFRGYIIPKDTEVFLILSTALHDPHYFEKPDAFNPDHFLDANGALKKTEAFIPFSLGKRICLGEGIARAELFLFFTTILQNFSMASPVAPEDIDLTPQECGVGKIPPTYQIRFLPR

Cytochrome P450 2D6 = Cytochrome P450 2D6 (Homo sapiens, UniProt P10635); experiment: Reversible inhibition of CYP2D6 in human liver microsomes in presence of NADPH by LC-MS/MS analysis; format: ADME, Microsome
Sequence of Cytochrome P450 2D6 (P10635 whole entry): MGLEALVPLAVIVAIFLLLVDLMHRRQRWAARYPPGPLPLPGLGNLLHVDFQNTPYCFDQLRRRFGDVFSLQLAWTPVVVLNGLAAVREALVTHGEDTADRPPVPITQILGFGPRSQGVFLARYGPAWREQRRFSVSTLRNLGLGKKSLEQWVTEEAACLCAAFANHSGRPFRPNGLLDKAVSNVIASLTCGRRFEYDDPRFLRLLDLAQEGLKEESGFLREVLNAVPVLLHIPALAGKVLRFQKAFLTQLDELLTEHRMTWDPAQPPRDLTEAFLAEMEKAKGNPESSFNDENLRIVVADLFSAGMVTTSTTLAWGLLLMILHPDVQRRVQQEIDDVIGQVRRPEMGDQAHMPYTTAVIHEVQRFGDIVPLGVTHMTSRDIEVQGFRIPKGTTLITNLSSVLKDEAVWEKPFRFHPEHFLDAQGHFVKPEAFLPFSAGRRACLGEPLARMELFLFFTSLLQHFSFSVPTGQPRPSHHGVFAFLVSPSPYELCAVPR

[8] = target: 5-hydroxytryptamine receptor 2B (Homo sapiens) (UniProt P41595); experiment: Antagonist activity at 5HT2B (unknown origin) at 10 uM by Eurofins-CEREP panel assay relative to control; format: functional; set-up: scale not given: the % may be the effect or the level left; conditions: filed as antagonist
Sequence of 5-hydroxytryptamine receptor 2B (Homo sapiens) (P41595 whole entry): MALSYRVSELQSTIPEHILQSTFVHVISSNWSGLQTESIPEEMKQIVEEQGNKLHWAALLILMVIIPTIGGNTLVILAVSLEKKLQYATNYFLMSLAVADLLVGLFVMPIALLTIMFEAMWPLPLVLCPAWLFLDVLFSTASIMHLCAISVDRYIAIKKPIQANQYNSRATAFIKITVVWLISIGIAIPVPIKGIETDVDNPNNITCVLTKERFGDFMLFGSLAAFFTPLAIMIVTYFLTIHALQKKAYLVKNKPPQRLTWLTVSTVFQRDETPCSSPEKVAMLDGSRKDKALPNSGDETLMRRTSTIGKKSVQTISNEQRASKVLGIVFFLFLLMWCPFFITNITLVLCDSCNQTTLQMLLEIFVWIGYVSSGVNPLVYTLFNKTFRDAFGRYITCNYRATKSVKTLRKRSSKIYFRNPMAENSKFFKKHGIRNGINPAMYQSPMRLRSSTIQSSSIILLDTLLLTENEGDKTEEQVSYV

Cytochrome P450 2C8 = target: T4, Cytochrome P450 2C8 (Homo sapiens, UniProt P10632); experiment: Reversible inhibition of CYP2C8 in human liver microsomes in presence of NADPH by LC-MS/MS analysis; format: ADME, Microsome
T4 sequence (P10632 whole entry): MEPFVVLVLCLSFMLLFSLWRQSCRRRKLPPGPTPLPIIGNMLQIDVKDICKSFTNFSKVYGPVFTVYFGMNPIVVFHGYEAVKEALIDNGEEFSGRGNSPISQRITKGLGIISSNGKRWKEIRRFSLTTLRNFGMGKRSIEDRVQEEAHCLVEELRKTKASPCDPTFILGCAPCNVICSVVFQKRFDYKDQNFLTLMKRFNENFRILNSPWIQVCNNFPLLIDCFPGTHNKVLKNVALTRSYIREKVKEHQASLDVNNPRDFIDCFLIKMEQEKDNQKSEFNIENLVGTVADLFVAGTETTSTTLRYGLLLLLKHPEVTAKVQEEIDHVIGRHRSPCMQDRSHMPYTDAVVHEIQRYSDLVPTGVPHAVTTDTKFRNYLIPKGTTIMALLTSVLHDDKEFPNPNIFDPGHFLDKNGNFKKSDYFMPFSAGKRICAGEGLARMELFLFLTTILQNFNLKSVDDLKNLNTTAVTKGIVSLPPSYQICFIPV

Cytochrome P450 3A4 [9] = target: T5, Cytochrome P450 3A4 (Homo sapiens, UniProt P08684); experiment: Reversible inhibition of CYP3A4 in human liver microsomes using midazolam as substrate in presence of NADPH by LC-MS/MS analysis; format: ADME, Microsome
T5 sequence (P08684 whole entry): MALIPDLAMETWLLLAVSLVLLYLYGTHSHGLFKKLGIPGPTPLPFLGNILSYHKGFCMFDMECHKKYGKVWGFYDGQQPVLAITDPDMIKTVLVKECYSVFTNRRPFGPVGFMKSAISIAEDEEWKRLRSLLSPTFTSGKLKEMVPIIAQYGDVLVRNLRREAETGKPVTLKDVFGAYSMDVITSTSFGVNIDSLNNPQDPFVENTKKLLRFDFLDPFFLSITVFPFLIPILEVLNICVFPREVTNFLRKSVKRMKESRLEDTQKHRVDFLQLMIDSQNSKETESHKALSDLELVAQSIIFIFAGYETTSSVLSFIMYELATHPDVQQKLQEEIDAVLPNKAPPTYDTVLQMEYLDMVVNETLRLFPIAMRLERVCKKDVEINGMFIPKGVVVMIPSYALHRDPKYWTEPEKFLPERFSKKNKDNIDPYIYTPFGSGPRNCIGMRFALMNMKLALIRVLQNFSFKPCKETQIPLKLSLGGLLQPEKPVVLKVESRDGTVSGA

[10] = Drug concentration in C57BL/6J mouse brain at 3 mg/kg, iv measured after 5 mins by LC-MS/MS analysis; format: ADME, organism-based; conditions: read-out: Ct
[11] = target: Voltage-gated inwardly rectifying potassium channel KCNH2 (Homo sapiens, UniProt Q12809); experiment: Inhibition of hERG transfected in CHO cells at -80 mV holding potential by Whole-cell patch clamp assay; format: toxicity, cell-based
Sequence of Voltage-gated inwardly rectifying potassium channel KCNH2 (Q12809 whole entry): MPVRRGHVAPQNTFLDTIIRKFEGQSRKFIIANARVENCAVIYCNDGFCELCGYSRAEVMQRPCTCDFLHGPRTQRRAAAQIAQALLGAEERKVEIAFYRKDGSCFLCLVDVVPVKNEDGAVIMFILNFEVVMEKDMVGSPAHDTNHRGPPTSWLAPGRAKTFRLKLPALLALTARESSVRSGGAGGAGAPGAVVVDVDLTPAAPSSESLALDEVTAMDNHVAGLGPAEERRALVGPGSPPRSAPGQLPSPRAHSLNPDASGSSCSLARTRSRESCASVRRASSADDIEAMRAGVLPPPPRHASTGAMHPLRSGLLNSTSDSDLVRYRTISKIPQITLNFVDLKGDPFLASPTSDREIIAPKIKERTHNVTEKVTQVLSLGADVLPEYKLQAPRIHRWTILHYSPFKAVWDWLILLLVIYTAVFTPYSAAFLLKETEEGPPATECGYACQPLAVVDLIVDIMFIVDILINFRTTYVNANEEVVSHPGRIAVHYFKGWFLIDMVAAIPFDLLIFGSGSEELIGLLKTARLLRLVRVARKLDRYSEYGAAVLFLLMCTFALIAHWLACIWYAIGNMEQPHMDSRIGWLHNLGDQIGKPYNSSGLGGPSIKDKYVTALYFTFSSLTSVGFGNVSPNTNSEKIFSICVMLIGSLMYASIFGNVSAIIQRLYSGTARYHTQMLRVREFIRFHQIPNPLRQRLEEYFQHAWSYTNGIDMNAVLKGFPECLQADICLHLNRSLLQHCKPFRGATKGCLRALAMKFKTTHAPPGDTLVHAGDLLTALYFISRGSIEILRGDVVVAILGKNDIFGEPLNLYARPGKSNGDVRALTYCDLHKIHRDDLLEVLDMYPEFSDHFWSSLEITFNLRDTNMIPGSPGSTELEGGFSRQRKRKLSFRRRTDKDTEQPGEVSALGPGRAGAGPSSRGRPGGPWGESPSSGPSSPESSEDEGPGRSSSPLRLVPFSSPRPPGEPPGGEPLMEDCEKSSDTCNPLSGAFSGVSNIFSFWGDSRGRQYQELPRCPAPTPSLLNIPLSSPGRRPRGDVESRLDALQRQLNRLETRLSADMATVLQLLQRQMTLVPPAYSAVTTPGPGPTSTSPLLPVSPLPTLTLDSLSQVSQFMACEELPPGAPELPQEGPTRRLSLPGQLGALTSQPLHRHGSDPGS

[12] = Ratio of drug concentration in C57BL/6J mouse brain to blood at 3 mg/kg, iv measured after 5 mins by LC-MS/MS analysis; format: ADME, organism-based; conditions: read-out: BBR
[13] = Phototoxicity in mouse BALB/3T3 clone A31 cells incubated under dark condition for 1 hr followed by 2.5 J/cm2 UVA light irradiation for 18 mins by neutral red dye based assay; format: toxicity, cell-based; conditions: balb/3t3 clone a31, 1.3 h, time 78 min
Cytochrome P450 3A4 [14] = target: T5, Cytochrome P450 3A4; experiment: Reversible inhibition of CYP3A4 in human liver microsomes using nifedipine as substrate incubated for 5 mins in presence of NADPH by LC-MS/MS analysis; format: ADME, Microsome
Cytochrome P450 2C9 = Cytochrome P450 2C9 (Homo sapiens, UniProt P11712); experiment: Reversible inhibition of CYP2C9 in human liver microsomes in presence of NADPH by LC-MS/MS analysis; format: ADME, Microsome
Sequence of Cytochrome P450 2C9 (P11712 whole entry): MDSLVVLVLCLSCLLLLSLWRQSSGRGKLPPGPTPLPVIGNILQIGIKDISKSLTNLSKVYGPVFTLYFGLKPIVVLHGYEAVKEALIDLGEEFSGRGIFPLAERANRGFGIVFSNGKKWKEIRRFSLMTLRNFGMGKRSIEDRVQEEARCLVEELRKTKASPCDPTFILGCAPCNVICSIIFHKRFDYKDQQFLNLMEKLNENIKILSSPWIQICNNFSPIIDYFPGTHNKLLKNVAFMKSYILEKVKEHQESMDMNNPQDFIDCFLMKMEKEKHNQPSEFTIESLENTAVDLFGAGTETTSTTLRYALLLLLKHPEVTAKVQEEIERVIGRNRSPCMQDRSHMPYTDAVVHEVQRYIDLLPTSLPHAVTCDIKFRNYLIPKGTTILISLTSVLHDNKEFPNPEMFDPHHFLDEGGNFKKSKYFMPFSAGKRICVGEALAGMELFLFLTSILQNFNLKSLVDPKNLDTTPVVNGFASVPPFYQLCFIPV

[15] = Drug concentration in C57BL/6J mouse blood at 3 mg/kg, iv measured after 5 mins by LC-MS/MS analysis; format: ADME, organism-based; conditions: read-out: Ct
[16] = Induction of steatosis in human HepG2 cells assessed as accumulation of triglycerides in cytoplasm by high content screening analysis; format: toxicity, cell-based

CCOC(=O)[C@@H](Cc1ncccn1)NC(=O)Nc1c2c(cc3c1CCC3)CCC2
Papp at 4 h [1]: 8.2 ×10⁻⁶ cm/s | IC50 [2]: 4.3 µM | IC50 [3]: 2.7 µM

CC(C)OC(=O)[C@@H](Cn1cncn1)OC(=O)Nc1c2c(cc3c1CCC3)CCC2
Papp at 4 h [1]: 13.7 ×10⁻⁶ cm/s | solubility kinetic at 24 h [4]: 37 µM (≈ 14.7 µg/mL) | IC50 (Cytochrome P450 1A2): 0.18 µM

CCOC(=O)COC(=O)Nc1ccccc1C(C)C
IC50 [5]: 5.5 µM | IC50 [6]: 1.6 µM

CCOC(=O)COC(=O)Nc1cc(C)ccc1C
IC50 [5]: 2.9 µM | IC50 [6]: 0.97 µM

CCOC(=O)COC(=O)Nc1c(C)cc(C)cc1C
IC50 [5]: 3.9 µM | IC50 [6]: 0.59 µM

CCOC(=O)COC(=O)Nc1ccccc1OC(F)(F)F
IC50 [5]: > 20 µM | IC50 [6]: > 20 µM

CC(C)OC(=O)[C@@H](Cn1cc(C#N)cn1)OC(=O)Nc1c2c(cc3c1CCC3)CCC2
Papp at 4 h [1]: 5 ×10⁻⁶ cm/s | solubility kinetic at 24 h [4]: < 1 µM | IC50 (Cytochrome P450 2C19): 4.4 µM

CCOC(=O)COC(=O)Nc1c(C(C)C)cccc1C(C)C
IC50 [5]: > 20 µM | IC50 [6]: 10 µM

CCOC(=O)COC(=O)Nc1c(CC)cccc1CC
IC50 [5]: 13 µM | IC50 [6]: 0.81 µM

CC(C)OC(=O)[C@@H](Cc1ncccn1)OC(=O)Nc1c2c(cc3c1CCC3)CCC2 [NT-0796]
inhibition (NLRC4 (Homo sapiens)): inactive | Activity [7]: Non-Toxic | MEC (HepG2): > 40 µM | IC50 (Cytochrome P450 2B6): > 30 µM | IC50 (Cytochrome P450 2D6): > 30 µM | Activity [8]: 90% | Papp at 4 h [1]: 11.8 ×10⁻⁶ cm/s | IC50 (Cytochrome P450 2C8): > 30 µM | IC50 [2]: > 2 µM | IC50 (Cytochrome P450 3A4 [9]): > 30 µM | concentration at 5 min [10]: 479 ng/g | solubility kinetic at 24 h [4]: 28 µM (≈ 11.5 µg/mL) | IC50 (Cytochrome P450 2C19): > 30 µM | IC50 (Cytochrome P450 1A2): > 30 µM | IC50 [3]: > 2 µM | IC50 [11]: > 30 µM | Kp at 5 min [12]: 0.79 | Activity [13]: Non-Toxic | IC50 (Cytochrome P450 3A4 [14]): > 30 µM | IC50 (Cytochrome P450 2C9): > 30 µM | concentration at 5 min [15]: 610 ng/mL | MEC [16]: > 40 µM

O=C(Nc1c2c(cc3c1CCC3)CCC2)O[C@H](Cc1ncccn1)C(=O)O
IC50 [5]: 4.7 µM | IC50 (Cytochrome P450 2D6): > 30 µM | Papp at 4 h [1]: < 0.0002 ×10⁻⁶ cm/s | concentration at 5 min [10]: 91.7 ng/g | solubility kinetic at 24 h [4]: > 200 µM | IC50 (Cytochrome P450 2C19): > 30 µM | IC50 (Cytochrome P450 1A2): > 30 µM | Kp at 5 min [12]: 0.07 | IC50 (Cytochrome P450 3A4 [14]): > 30 µM | IC50 (Cytochrome P450 2C9): > 30 µM | IC50 [6]: 0.066 µM | concentration at 5 min [15]: 1160 ng/mL

CCOC(=O)COC(=O)Nc1ccccc1C(F)(F)F
IC50 [5]: > 20 µM | IC50 [6]: > 20 µM

CCOC(=O)COC(=O)Nc1c(C)cccc1CC
IC50 [5]: 2.4 µM | IC50 [6]: 1.5 µM

CC(C)OC(=O)[C@@H](Cc1cnccn1)OC(=O)Nc1c2c(cc3c1CCC3)CCC2
Papp at 4 h [1]: 13.7 ×10⁻⁶ cm/s | solubility kinetic at 24 h [4]: 5.5 µM (≈ 2.25 µg/mL) | IC50 (Cytochrome P450 1A2): 1.1 µM

CC(C)(O)c1coc(S(=O)(=O)NC(=O)Nc2c3c(cc4c2CCC4)CCC3)c1
Papp at 4 h [1]: < 0.0003 ×10⁻⁶ cm/s | IC50 [2]: > 40 µM | IC50 [3]: > 40 µM

O=C(Nc1c2c(cc3c1CCC3)CCC2)O[C@H](Cc1ncccn1)C(=O)OC1CCCC1
Papp at 4 h [1]: 3.5 ×10⁻⁶ cm/s | solubility kinetic at 24 h [4]: < 1 µM

CCOC(=O)COC(=O)N(C)c1c2c(cc3c1CCC3)CCC2
IC50 [5]: > 40 µM | IC50 [6]: > 40 µM

CCOC(=O)COC(=O)Nc1c(F)cccc1F
IC50 [5]: 9.4 µM | IC50 [6]: 1.9 µM

CCOC(=O)COC(=O)Nc1c(Cl)cccc1Cl
IC50 [5]: 9.2 µM | IC50 [6]: 1 µM

CCOC(=O)COC(=O)Nc1ccccc1C#N
IC50 [5]: 6.8 µM | IC50 [6]: 5.5 µM

CCOC(=O)COC(=O)Nc1c(C)cccc1C
IC50 [5]: 1.1 µM | IC50 [6]: 0.93 µM

CCOC(=O)CNC(=O)Oc1c2c(cc3c1CCC3)CCC2
IC50 [5]: > 40 µM | IC50 [6]: > 40 µM

COC(=O)CN(C)C(=O)Nc1c2c(cc3c1CCC3)CCC2
IC50 [5]: > 40 µM | IC50 [6]: > 40 µM
